Publication PMC8147254, “Efflux at the Blood-Brain Barrier Reduces the Cerebral Exposure to Ochratoxin A, Ochratoxin α, Citrinin and Dihydrocitrinone” (Toxins, 2021)

Key:
PBCEC [1] = conditions: 10 µM
PBCEC [2] = assay type: cell-based, porcine; conditions: levels higher than 100 µM; data not shown
Experimental: In order to study the barrier integrity PBCEC were incubated with 1 µM OTA, OTα, CIT and DHCIT in the apical compartment (blood side) of Transwell® filter inserts for 48 h. The TEER values as well as the electrical capacitance (cCL) were monitored by cellular impedance spectroscopy (Figure 4A,B). As a negative control the permeability of […] was measured after 48 h. Sucrose is not transported by any cellular transport protein and represents a marker for an intact BBB.
For barrier integrity, TEER values were monitored using a cellZscope® cellular impedance spectrometer (nanoAnalytics, Münster, Germany). […]. The detailed protocols can be found in the Supplementary Materials. […]
6.1. Cellular impedance spectroscopy
To monitor the barrier integrity during all transfer studies, the transendothelial electrical resistance (TEER) was measured with a cellZscope® cellular impedance spectrometer (nanoAnalytics, Münster, Germany) using a module suitable for 24 Transwell® filter inserts. After the mycotoxins were added to the cell culture medium, TEER was analyzed until the end of the experiment (48 h). The waiting time after each run was set to 10 min, resulting in 60 scans per 48 h.
The results were normalized to the TEER values of the first impedance spectrum of each well. Data processing was performed using the cellZscope 1.3.4 software (nanoAnalytics, Münster, Germany).

In the case of `CC(=O)OC[C@]12C[C@H](OC(=O)CC(C)C)C(C)=C[C@H]1O[C@@H]1[C@H](O)[C@@H](OC(C)=O)[C@@]2(C)[C@]12CO2` [T-2 toxin, reference compound], the “cellular viability (dehydrogenase activity) compared to the negative control” value (PBCEC [1]) was 2 ± 1%.
With `CCCN(CCC)S(=O)(=O)c1ccc(C(=O)O)cc1` [probenecid, 4-(N,N-dipropylaminosulfonyl)benzoic acid, reference compound] the “effect on PBCEC barrier integrity” value (PBCEC [2]) was “impaired the PBCEC barrier integrity”.
